# Measured values published in patent US6797824B2, “Certain 4-aminomethyl-2-substituted imidazole derivatives and 2-aminomethyl-4-substituted imidazole derivatives; new classes of dopamine receptor subtype specific ligands” (Neurogen Corporation, priority 1990, dated 2004).
# Structures can show the parent of a compound that is named as a salt.
# Columns and labels:
# [1] = target: T1, dopamine D4 receptors in rat hippocampus (Rattus norvegicus, UniProt P30729); experiment: Binding to D4 receptors in rat hippocampus
# T1 construct: from tissue; host or cells: rat hippocampus (from the head of the results)
# T1 sequence (P30729 1-387): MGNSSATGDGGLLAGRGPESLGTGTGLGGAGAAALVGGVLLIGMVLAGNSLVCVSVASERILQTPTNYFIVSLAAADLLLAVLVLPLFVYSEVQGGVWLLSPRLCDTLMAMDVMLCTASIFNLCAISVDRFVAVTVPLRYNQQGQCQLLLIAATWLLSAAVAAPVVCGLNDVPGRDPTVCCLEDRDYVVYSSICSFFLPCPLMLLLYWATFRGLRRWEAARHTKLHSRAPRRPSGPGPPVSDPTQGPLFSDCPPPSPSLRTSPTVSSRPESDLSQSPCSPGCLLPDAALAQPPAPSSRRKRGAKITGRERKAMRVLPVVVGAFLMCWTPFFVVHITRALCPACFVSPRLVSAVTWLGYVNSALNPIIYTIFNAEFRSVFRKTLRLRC
# [2] = target: T2, dopamine D4 receptors in human hippocampus (Homo sapiens, UniProt P21917); experiment: Binding to D4 receptors in human hippocampus
# T2 construct: from tissue; host or cells: human hippocampus (from the head of the results)
# T2 sequence (P21917 1-419): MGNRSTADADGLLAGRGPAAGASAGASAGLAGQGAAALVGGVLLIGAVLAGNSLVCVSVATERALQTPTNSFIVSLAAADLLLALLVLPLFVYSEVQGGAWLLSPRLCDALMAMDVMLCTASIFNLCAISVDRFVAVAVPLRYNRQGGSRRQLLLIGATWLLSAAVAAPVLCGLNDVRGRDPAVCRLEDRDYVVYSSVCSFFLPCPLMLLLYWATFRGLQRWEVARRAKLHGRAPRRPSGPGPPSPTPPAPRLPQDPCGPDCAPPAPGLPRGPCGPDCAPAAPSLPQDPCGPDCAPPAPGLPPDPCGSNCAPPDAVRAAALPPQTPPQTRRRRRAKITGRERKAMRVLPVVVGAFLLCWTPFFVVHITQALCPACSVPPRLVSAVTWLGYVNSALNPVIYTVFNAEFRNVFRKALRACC
# [3] = target: T3, human dopamine D4 receptor subtype (Homo sapiens, UniProt P21917); experiment: D4 receptor binding, displacement of [3H]YM-09151-2
# T3 construct: expressed in transfected cells
# T3 sequence (P21917 1-419): T2 sequence (P21917 1-419)
# Method: Assay for D4 Receptor Binding Activity
# Clonal cell lines expressing the human dopamine D4 receptor subtype were harvested in PBS and the cells centrifuged and the pellets stored at −80° C. until used in the binding assay. […] The homogenate is centrifuged at 48000×g for 10 minutes at 4° C. The resulting pellet is resuspended in fresh buffer and centrifuged again. After resuspension of the pellet in fresh buffer at […] aliquot is removed for protein determination. […] Incubations were carried out for 60 minutes at 25° C. in the presence of 0.1 nM [^3H] […] Non-specific binding was determined with 1 mM spiperone and radioactivity determined by counting in an LKB beta counter. Binding parameters were determined by non-linear least squares regression analysis, from which the inhibition constant (ki) could be calculated for each test compound.
# [4] = system: male Sprague Dawley rats (learning and memory); experiment: Step-down passive avoidance task; assay type: in vivo, rat
# Method: Non-naive male Sprague Dawley rats (SASCO St. Louis) weighing between 2000-300 grams, were housed in groups of three in a temperature and humidity controlled vivarium having a 12 hour light/dark cycle. Animals had ad lib access to food and water.
# Both drugs were administered intravenously 5 minutes prior to training in both learning tasks.
# Step-Down Passive Avoidance: A step-down passive avoidance platform 4 (cm)×7 (cm) was placed in the center of an electrified gris floor, which was contained within a large (45×45×50 cm) white translucent plexiglas enclosure having a closable lid. The bars of the grip were spaced 1.5 cm apart and were wired to a BRS-LVE shock generator/scrambler which was set to deliver a 2 mA 6 second shock. Four passive avoidance boxes were automated by customer software (Labview) and commercial interface modules (National Instruments) connected to a computer. The timing and delivery of the shock as well as the latency to steo down and the number of trials taken to reach criterion during raining was under the control of the computer. All testing was done in the presence of 62 db white noise. […]
# Retention Testing: Testing was conduced approximately 24 hours after training, Drug-free animals were placed on the platform in the box in which they were trained and the latency to step down onto the unshocked floor was recorded for one trial. […]
melting point [°C],Compound,"binding to dopamine D4 receptors, functional type [1]","binding to dopamine D4 receptors, functional type [2]",further results
,"c1ccc(-c2ncc(CN3CCN(c4ccccn4)CC3)[nH]2)cc1 [Compound 24, 2-Phenyl-4(5)-[(4-(2-pyridyl)-piperazin-1-yl)-methyl]-imidazole dihydrochloride]",antagonists binding to dopamine D4 receptors,antagonists binding to dopamine D4 receptors,
,"c1ccc(-c2ncc(CN3CCN(c4ccccc4)CC3)[nH]2)cc1 [Compound 45, 2-Phenyl-4(5)-[(4-phenyl-piperazin-1-yl)methyl]-imidazole]",antagonists binding to dopamine D4 receptors,antagonists binding to dopamine D4 receptors,Ki [3]: 5 nM
,"c1ccc(-c2ncc(CN3CCN(c4ncccn4)CC3)[nH]2)cc1 [Compound 23, 2-Phenyl-4(5)-[(4-(2-pyrimidinyl)-piperazin-1-yl)methyl]-imidazole dihydrochloride]",antagonists binding to dopamine D4 receptors,antagonists binding to dopamine D4 receptors,"passive avoidance retention: time on platform during retest vs vehicle ([4]; 0.25 mg/kg i.v., retest about 24 h after training): significantly longer time; passive avoidance acquisition vs vehicle group ([4]; 0.03-1.0 mg/kg i.v. 5 min prior to training): no significant differences; Ki [3]: 2.7 nM"
138 to 143,"COc1ccc(Cl)cc1-c1ncc(CN2CCN(c3ccccc3OC)CC2)[nH]1 (as salt: hydrochloride) [Compound 43, 2-(5-Chloro-2-methoxyphenyl)-4(5)-[(4-(2-methoxyphenyl)-piperazin-1-yl)-methyl]-imidazole dihydrochloride]",,,
105 to 107,"COc1ccccc1N1CCN(Cc2cnc(-c3ccccc3)[nH]2)CC1 [Compound 19, 2-phenyl-4(5)-[(4-(2-methoxyphenyl)-piperazin-1-yl)-methyl]imidazole]",,,
143 to 148,"O=C(CCc1cnc(-c2ccccc2)[nH]1)N1CCN(c2ncccn2)CC1 [Compound 122, 2-phenyl-4(5)-[(4-(2-pyrimidinyl)-piperazin-1-yl)-propan-1-oyl]-imidazole]",,,
198 to 199,"COc1ccccc1N1CCN(Cc2cnc(-c3cccc(Cl)c3)[nH]2)CC1 (as salt: hydrochloride) [Compound 22, 2-(3-Chlorophenyl)-4(5)-[(4-(2-methoxyphenyl)-piperazin-1-yl)-methyl]-imidazole dihydrochloride]",,,
